According to paper PMC8750650 (bioRxiv, 2022):

Key:
[1] = target: CSNK2A1 (Homo sapiens, UniProt P68400); test: cell-based; type: cell-based
[2] = target: CSNK2A2 (Homo sapiens, UniProt P19784); test: cell-based
[3] = system: SARS-CoV-2 spike protein uptake; type: cell-based, human
[4] = system: MHV-nLuc; test: microbe, parasite or virus in culture; type: cell-based, mouse hepatitis virus (MHV); settings: Murine coronavirus, 10 h, read-out: MHV replication (pIC50) (converted)
[5] = system: SARS-CoV-2; settings: African green monkey kidney epithelial Vero cells infected with SARS-CoV-2; ref [18]; cited from earlier work
[6] = system: SARS-CoV-2; settings: human lung epithelial A549-ACE2 cells; ref [18]; cited from earlier work
[7] = system: A549-ACE2 cells; settings: ref [18]; cited from earlier work
[8] = system: Vero cells; settings: ref [18]; cited from earlier work
[9] = system: DBT cells; settings: LDH assay, 10 h, concentrations up to 10 μM

CSNK2A2, sequence (P19784 whole entry): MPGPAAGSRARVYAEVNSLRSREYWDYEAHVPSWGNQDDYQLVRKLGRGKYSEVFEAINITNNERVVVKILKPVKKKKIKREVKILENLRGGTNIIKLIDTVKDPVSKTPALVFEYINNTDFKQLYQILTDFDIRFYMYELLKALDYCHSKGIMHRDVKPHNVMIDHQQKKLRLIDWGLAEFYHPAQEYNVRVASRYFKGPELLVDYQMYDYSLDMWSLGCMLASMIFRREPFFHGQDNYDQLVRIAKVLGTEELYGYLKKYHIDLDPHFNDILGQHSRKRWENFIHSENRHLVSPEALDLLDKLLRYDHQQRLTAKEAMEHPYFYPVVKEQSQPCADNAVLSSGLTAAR
CSNK2A1, sequence (P68400 whole entry): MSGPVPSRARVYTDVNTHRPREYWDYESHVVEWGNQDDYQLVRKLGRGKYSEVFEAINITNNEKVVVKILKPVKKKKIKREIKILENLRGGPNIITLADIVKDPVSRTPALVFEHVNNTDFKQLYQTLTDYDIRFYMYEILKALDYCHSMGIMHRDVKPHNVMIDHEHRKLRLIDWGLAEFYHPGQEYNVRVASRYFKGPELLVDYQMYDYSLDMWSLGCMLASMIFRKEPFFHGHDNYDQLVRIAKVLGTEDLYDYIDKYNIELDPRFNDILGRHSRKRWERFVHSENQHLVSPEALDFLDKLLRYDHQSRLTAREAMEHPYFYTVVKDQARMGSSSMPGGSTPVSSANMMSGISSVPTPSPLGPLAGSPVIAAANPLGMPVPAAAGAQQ

Structure (SMILES)	IC50 [1] [nM]	IC50 [2] [nM]	further results
CCC(=O)Nc1cc(Nc2cc(NC3CC3)n3ncc(C#N)c3n2)ccc1N(C)CCN [Compound 9]	3.98		
CCC(=O)Nc1cc(Nc2cc(NC3CC3)n3ncc(C#N)c3n2)ccc1N(C)CCN1CCCC1 [Compound 11]	100	100	
CCC(=O)Nc1cc(Nc2cc(NC3CC3)n3ncc(C#N)c3n2)ccc1N(C)CCN1CCCCC1 [Compound 12]	251		
CCC(=O)Nc1cc(Nc2cc(NC3CC3)n3ncc(C#N)c3n2)ccc1N1CCNCC1 [Compound 14]	158		
CCC(=O)Nc1cc(Nc2cc(NC3CC3)n3ncc(C#N)c3n2)ccc1N1CCCC(NC)C1 (stereo not drawn) [Compound 15]	2	15.8	selectivity for CSNK2A1 over CSNK2A2 ([1]; from nanoBRET values): 6–8 fold
CC(=O)Nc1ccc2ccn(-c3cc(NC4CC(F)(F)C4)n4ncc(C#N)c4n3)c2c1 [Compound 18]	39.8	100	
CC(=O)Nc1ccc2ccn(-c3cc(NC45CC(C4)C5)n4ncc(C#N)c4n3)c2c1 [Compound 19]	158	79.4	
CC(=O)Nc1ccc2ccn(-c3cc(NC4(C)CC4)n4ncc(C#N)c4n3)c2c1 [Compound 20]	501	1580	
CC(=O)Nc1ccc2ccn(-c3cc(NCC4CCOC4)n4ncc(C#N)c4n3)c2c1 (stereo not drawn) [Compound 25]	31.6	251	
CC(=O)Nc1ccc2ccn(-c3cc(NCC4CCOCC4)n4ncc(C#N)c4n3)c2c1 [Compound 26]	100	2000	
CC(=O)Nc1ccc2ccn(-c3cc(NC4CCN(C(C)=O)CC4)n4ncc(C#N)c4n3)c2c1 [Compound 28]	63.1	398	
CC(=O)Nc1ccc2ccn(-c3cc(NCc4cnn(C)c4)n4ncc(C#N)c4n3)c2c1 [Compound 29]	158	200	
CC(=O)Nc1ccc2ccn(-c3cc(N[C@H](C)C#N)n4ncc(C#N)c4n3)c2c1 [Compound 30]	126	79.4	
CC(=O)Nc1ccc2ccn(-c3cc(Sc4ccccc4)n4ncc(C#N)c4n3)c2c1 [Compound 33]	6310	6310	
CCC(=O)Nc1cc(Nc2cc(NC3CC3)n3ncc(C#N)c3n2)ccc1C [SGC-CK2–1]			decrease in spike protein uptake [3]: 70–80%; IC50 [4]: 126 nM
O=C(O)c1ccc2c(c1)nc(Nc1cccc(Cl)c1)c1ccncc12 [silmitasertib]			antiviral activity, SARS-CoV-2 (pIC50) [5]: 5.6; inhibition of SARS-CoV-2 infection (pIC50) [6]: < 5; cell toxicity [7]: cell toxicity at micromolar doses; cell toxicity [8]: cell toxicity at micromolar doses; effect on cell viability [9]: no effect on cell viability
